Where “and” joins values, the source holds several entries; their conditions need not be identical. Equal values may be shown once. Where a name gives a salt, the structure may show the parent alone. Calls of active or inactive are those of the source.
Tests used:
[1] = Luminescence Cell-Based Dose Confirmation to Identify Activators of 5'UTR Stem-Loop Driven Alpha-Synuclein mRNA Translation in H4 Neuroglioblastoma Cells. [Related pubchem assays: 1829 (Project Summary), 1814 (Primary HTS)]; assay type: functional
[2] = biological target: Exodeoxyribonuclease V (Escherichia coli (strain K12), UniProt P04993+P07648+P08394); assay: E. coli RecBCD inhibitors, dose response, counter-screen for AddAB inhibitor project, absorbance, V66 E. coli, mutant T4 phage (AID 492957); assay type: functional, cell-based, Escherichia coli str. K-12 substr. MG1655
[3] = Counterscreen for AddAB inhibitors: absorbance-based bacterial cell-based high throughput dose response assay for inhibitors of bacterial viability. [Related pubchem assays (depositor defined):AID435030, AID449728, AID449731, AID488942, AID488955, AID488956]; assay type: functional
[4] = biological target: CAAX prenyl protease 1 (Saccharomyces cerevisiae S288c, UniProt P47154); assay: Ste24 protease inhibitors, dose response, biochemical, S. cerevisiae, plate reader, cherry-pick (AID 488815)
[5] = biological target: T1, Insulin-degrading enzyme (Homo sapiens, UniProt P14735); assay: activators of recombinant IDE enzyme, dose response, counter-screen for IDE activator project, biochemical, fluorescence polarization (AID 588681)
T1 sequence (P14735 whole entry): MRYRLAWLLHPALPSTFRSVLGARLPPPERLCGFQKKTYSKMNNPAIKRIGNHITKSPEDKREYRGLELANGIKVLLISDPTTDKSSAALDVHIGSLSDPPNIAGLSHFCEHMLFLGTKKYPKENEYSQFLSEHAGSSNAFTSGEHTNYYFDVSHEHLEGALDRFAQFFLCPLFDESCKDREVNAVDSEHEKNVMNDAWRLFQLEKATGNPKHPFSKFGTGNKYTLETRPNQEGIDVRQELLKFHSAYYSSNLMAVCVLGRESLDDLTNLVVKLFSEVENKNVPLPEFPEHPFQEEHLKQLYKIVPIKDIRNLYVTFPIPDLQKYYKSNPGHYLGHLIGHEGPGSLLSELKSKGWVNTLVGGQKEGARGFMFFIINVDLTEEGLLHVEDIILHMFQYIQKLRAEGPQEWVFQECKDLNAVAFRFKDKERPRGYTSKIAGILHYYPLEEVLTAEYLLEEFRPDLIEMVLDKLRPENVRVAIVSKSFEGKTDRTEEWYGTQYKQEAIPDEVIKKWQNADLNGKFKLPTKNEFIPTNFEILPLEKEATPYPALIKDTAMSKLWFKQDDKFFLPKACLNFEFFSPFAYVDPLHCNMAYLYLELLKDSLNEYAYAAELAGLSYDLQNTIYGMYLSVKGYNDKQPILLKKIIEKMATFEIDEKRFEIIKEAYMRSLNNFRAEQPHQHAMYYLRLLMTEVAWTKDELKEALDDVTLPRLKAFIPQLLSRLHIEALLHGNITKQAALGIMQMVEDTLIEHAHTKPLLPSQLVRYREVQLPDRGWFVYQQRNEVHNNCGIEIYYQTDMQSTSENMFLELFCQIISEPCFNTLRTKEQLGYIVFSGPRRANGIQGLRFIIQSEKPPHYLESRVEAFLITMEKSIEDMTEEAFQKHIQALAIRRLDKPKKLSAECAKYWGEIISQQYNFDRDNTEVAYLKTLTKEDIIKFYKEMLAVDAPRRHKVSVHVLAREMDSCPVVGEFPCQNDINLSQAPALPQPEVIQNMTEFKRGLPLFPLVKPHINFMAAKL

[6] = biological target: T1, Insulin-degrading enzyme; assay: activators of endogenous IDE in HEK cells, dose response, cell-based, fluorescence polarization (AID 588439); assay type: functional
[7] = system: HEK293; assay: HEK cell cytotoxicity by LDH release, dose response, cytotoxicity control for IDE activator project, fluorescence, HEK cells (AID 588440); assay type: functional, cell-based; conditions: Homo sapiens;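 further: cytotoxicity by LDH release measuring loss of membrane integrity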
[8] = biological target: T2, Caspase-6 (Homo sapiens, UniProt P55212); assay: human caspase-6 inhibitors, dose response, biochemical, VEID-R110 fluorescence, cherry-pick (AID 720632)
T2 sequence (P55212 whole entry): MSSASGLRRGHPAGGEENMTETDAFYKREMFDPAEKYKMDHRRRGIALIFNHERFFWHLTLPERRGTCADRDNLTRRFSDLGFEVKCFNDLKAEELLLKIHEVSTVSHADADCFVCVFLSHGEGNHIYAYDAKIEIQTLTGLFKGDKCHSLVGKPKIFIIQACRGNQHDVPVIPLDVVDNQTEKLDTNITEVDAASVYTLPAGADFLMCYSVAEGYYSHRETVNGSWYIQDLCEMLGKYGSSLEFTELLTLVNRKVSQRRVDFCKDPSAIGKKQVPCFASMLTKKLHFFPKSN

[9] = biological target: Dual specificity mitogen-activated protein kinase kinase 1 (Homo sapiens, UniProt Q02750); assay: Navigating the Kinome. Panel member name: MAP2K1; assay type: functional
Sequence of Dual specificity mitogen-activated protein kinase kinase 1 (Q02750 whole entry): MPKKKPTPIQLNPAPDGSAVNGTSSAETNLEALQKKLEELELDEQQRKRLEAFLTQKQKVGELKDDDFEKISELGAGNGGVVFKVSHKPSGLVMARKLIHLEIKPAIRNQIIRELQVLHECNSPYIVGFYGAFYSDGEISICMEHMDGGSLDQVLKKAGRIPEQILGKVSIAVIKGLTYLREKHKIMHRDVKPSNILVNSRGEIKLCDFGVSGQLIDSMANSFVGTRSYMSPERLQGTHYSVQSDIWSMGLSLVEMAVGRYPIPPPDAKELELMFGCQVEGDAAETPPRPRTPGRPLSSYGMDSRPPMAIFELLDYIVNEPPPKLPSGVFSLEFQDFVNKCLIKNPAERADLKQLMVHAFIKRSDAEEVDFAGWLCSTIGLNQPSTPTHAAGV

[10] = biological target: cGMP-dependent protein kinase 1 (Homo sapiens, UniProt Q13976); assay type: functional;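 further: value from a kinome panel screen with PRKG1 as the panel member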
[11] = biological target: Serine/threonine-protein kinase TBK1 (Homo sapiens, UniProt Q9UHD2); assay: Navigating the Kinome. Panel member name: TBK1; assay type: functional
Sequence of Serine/threonine-protein kinase TBK1 (Q9UHD2 whole entry): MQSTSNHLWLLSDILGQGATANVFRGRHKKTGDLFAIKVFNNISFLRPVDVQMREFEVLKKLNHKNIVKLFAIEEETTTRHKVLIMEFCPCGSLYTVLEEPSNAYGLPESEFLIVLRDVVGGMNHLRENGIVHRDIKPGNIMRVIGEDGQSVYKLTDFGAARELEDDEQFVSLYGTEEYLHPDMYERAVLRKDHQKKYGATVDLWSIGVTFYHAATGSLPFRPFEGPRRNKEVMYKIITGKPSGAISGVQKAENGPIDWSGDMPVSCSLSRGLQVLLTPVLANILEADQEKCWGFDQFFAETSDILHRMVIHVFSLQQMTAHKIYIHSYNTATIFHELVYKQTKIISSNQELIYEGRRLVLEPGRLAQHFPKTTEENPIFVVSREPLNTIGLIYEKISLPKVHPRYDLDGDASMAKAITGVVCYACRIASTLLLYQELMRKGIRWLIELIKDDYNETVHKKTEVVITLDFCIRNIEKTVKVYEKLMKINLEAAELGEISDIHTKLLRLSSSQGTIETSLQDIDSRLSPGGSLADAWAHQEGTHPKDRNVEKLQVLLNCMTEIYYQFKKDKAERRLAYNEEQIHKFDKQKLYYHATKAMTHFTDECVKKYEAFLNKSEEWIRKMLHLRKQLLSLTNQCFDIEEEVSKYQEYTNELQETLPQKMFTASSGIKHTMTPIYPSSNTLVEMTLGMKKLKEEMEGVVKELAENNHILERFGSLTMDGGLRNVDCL

[12] = biological target: Calcium/calmodulin-dependent protein kinase type II subunit gamma (Homo sapiens, UniProt Q13555); assay type: functional
Sequence of Calcium/calmodulin-dependent protein kinase type II subunit gamma (Q13555 whole entry): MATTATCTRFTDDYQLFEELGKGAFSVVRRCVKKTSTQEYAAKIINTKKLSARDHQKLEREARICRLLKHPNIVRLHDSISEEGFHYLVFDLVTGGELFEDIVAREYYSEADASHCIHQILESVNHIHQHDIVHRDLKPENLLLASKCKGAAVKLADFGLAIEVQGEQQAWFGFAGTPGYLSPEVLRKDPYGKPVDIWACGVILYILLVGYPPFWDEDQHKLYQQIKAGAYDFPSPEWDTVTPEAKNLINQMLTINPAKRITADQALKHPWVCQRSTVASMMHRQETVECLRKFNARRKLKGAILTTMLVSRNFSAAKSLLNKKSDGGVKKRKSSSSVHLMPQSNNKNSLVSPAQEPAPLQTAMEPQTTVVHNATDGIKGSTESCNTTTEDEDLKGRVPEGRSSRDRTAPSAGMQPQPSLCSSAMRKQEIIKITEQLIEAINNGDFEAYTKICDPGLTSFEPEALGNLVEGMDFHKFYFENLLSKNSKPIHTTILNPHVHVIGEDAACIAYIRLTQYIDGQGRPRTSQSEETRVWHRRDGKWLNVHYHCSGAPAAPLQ

[13] = biological target: Serine/threonine-protein kinase pim-1 (Homo sapiens, UniProt P11309); assay type: functional
Sequence of Serine/threonine-protein kinase pim-1 (P11309 whole entry): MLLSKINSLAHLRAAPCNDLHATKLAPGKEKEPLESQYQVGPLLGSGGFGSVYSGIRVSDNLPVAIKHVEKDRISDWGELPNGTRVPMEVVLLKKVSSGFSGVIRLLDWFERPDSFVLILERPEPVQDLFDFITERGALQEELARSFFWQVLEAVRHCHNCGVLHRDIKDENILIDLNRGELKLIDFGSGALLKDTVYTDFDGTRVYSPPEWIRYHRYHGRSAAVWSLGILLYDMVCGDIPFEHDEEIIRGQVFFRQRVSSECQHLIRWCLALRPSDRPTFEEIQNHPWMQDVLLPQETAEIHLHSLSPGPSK

[14] = biological target: MAP kinase-activated protein kinase 2 (Homo sapiens, UniProt P49137); assay type: functional;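 further: measured as one member of a kinome-wide kinase panel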
[15] = biological target: Serine/threonine-protein kinase PAK 4 (Homo sapiens, UniProt O96013); assay type: functional;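 further: value obtained within a kinome profiling panel in which PAK4 was one of the panel members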
[16] = biological target: Non-receptor tyrosine-protein kinase TYK2 (Homo sapiens, UniProt P29597); assay type: functional
Sequence of Non-receptor tyrosine-protein kinase TYK2 (P29597 whole entry): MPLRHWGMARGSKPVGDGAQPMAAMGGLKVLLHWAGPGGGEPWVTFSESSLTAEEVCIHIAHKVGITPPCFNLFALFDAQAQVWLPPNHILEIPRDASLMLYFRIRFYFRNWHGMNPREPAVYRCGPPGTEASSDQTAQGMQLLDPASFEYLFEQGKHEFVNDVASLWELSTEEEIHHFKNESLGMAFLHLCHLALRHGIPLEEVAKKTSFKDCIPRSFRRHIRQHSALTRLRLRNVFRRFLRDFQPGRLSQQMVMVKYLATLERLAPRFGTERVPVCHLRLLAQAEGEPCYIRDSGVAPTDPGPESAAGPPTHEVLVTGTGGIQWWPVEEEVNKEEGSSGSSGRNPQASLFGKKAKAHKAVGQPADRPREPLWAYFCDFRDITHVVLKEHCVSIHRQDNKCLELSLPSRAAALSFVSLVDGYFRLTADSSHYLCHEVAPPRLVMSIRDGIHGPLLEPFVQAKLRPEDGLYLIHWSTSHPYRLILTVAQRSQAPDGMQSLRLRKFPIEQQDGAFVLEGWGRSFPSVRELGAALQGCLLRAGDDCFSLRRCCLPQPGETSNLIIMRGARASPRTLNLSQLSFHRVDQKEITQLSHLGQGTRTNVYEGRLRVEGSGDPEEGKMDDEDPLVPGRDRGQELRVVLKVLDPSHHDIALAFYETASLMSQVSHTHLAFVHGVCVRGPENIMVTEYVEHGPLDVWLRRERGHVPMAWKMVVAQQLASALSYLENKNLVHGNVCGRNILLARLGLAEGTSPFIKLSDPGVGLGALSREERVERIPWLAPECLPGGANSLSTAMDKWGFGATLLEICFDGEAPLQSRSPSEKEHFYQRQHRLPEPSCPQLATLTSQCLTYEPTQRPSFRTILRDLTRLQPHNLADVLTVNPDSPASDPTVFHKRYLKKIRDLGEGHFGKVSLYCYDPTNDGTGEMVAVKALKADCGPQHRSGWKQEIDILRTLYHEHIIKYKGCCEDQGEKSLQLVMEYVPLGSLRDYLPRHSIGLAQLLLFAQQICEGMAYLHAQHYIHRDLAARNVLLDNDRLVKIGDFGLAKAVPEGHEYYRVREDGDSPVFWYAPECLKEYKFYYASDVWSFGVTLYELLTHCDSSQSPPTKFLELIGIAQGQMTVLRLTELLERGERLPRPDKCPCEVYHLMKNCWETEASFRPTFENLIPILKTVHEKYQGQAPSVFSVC

[17] = biological target: Proto-oncogene tyrosine-protein kinase Src (Homo sapiens, UniProt P12931); assay type: functional;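 further: SRC entry within a kinome-wide kinase profiling panel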
[18] = biological target: MAP kinase-interacting serine/threonine-protein kinase 2 (Homo sapiens, UniProt Q9HBH9); assay type: functional
Sequence of MAP kinase-interacting serine/threonine-protein kinase 2 (Q9HBH9 whole entry): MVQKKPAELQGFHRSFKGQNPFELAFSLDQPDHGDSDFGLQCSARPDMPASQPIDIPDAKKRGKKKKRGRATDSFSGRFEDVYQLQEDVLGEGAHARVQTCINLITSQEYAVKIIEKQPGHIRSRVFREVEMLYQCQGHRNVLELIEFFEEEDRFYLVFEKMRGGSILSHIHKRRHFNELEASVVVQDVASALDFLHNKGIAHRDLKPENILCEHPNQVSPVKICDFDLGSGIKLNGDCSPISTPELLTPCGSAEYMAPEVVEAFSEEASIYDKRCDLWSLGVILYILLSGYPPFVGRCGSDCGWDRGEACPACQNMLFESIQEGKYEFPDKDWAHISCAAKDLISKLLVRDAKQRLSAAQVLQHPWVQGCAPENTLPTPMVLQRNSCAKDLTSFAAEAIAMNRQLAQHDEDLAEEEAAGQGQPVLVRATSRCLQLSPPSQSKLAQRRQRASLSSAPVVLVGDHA

[19] = biological target: Cyclin-dependent kinase 5 (Homo sapiens, UniProt Q00535); assay type: functional;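 further: CDK5 measured as one member of a kinase profiling panel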
[20] = biological target: Homeodomain-interacting protein kinase 4 (Homo sapiens, UniProt Q8NE63); assay type: functional
Sequence of Homeodomain-interacting protein kinase 4 (Q8NE63 whole entry): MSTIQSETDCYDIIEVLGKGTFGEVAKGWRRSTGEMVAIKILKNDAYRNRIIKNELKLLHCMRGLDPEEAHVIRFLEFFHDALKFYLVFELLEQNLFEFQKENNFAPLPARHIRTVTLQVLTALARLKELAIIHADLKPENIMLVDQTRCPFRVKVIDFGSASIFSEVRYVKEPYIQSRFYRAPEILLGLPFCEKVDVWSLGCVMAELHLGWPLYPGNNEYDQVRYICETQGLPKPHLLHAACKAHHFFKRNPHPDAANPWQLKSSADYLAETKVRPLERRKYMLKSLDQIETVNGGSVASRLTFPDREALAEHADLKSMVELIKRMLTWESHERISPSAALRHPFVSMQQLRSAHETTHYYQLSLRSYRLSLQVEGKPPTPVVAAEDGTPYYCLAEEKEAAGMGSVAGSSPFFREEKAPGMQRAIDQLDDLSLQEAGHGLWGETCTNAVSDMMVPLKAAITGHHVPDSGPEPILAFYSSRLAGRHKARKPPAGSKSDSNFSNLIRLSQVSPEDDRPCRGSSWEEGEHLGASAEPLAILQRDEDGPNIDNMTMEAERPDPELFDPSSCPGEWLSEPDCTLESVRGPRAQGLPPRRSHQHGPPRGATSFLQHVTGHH

[21] = biological target: STE20-like serine/threonine-protein kinase (Homo sapiens, UniProt Q9H2G2); assay type: functional
[22] = biological target: Serine/threonine-protein kinase BRSK1 (Homo sapiens, UniProt Q8TDC3); assay type: functional;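 further: measured within a kinome-wide kinase panel, with the target listed as KIAA1811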
Sequence of Serine/threonine-protein kinase BRSK1 (Q8TDC3 whole entry): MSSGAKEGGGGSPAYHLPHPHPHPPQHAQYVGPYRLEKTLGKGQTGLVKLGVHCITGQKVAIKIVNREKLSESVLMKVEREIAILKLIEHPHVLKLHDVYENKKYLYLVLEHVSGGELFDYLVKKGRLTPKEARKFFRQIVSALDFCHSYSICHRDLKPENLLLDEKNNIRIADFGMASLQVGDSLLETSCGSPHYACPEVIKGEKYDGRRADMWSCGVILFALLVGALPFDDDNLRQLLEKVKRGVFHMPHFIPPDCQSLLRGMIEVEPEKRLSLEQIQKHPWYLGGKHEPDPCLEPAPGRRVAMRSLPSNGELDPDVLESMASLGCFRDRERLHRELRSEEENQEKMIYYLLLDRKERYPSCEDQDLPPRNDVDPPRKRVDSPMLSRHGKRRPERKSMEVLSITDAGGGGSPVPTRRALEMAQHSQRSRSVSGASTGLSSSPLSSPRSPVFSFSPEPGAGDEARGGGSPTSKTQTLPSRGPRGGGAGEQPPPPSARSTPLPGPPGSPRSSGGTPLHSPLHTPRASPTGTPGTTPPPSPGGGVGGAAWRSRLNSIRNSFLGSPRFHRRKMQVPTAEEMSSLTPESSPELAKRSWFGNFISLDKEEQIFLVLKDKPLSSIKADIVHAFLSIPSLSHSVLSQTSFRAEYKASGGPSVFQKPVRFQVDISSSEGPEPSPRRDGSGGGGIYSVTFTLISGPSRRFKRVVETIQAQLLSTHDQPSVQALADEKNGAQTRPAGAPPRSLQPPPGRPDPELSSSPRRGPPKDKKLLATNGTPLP

[23] = biological target: Calcium/calmodulin-dependent protein kinase type II subunit alpha (Homo sapiens, UniProt Q9UQM7); assay: Navigating the Kinome. Panel member name: CAMK2A; assay type: functional

For `CCN1/C(=C\c2ccc3ccccc3[n+]2CC)Sc2cc(C)ccc21`, the EC50 [1] was > 12 µM (not active), the IC50 [2] was 72.8 µM (inactive) and the IC50 [3] was 37.5 µM (inactive).
For `CCCCCCCCCCOC(=O)C[n+]1c(COc2ccc(C)cc2)n(C)c2ccccc21`, the AC50 [4] was 7.21 µM (active), the EC50 [5] was 16.9 µM (inactive) and the EC50 [6] was > 6.08 µM (active). For the same molecule, the IC50 [7] was 7.28 µM (active).
With `CC[C@@H](CO)NC(=O)[C@@H]1C=C2c3cccc4c3c(cn4C)C[C@H]2N(C)C1` [METHYSERGIDE MALEATE] the AC50 [8] was 11.5 µM (active) and 11.7 µM (active).
With `CN1CCN(c2nc(C3=C(c4c[nH]c5ccccc45)C(=O)NC3=O)c3ccccc3n2)CC1` [SOTRASTAURIN] the Ki [9] was 3.16 µM (active), the Ki [10] was 794 nM (active) and the Ki [11] was > 3.16 µM (inactive). The Ki [12] was 79.4 nM (active), the Ki [13] was 158 nM (active) and the Ki [14] was > 7.94 µM (inactive). The Ki [15] was > 5.01 µM (inactive), the Ki [16] was > 2 µM (inactive) and the Ki [17] was > 2 µM (inactive). The Ki [18] was > 10 µM (inactive), the Ki [19] was 3.16 µM (active) and the Ki [20] was > 7.94 µM (inactive). The Ki [21] was 126 nM (active), the Ki [22] was 2.51 µM (active) and the Ki [23] was 3.16 µM (active).

From ChEMBL document CHEMBL1201862, “PubChem BioAssay data set” (2004)
